Assay results from patent US20240417727A1, “ANTAGONIST OF THE MIRNA-106B-5P TO TREAT OR PREVENT THE CARDIOTOXICITY THAT IS DEVELOPED IN ONCOLOGIC PATIENTS AFTER RECEIVING ANTHRACYCLINE-BASED CHEMOTHERAPY” (UNIVERSIDAD DE MURCIA, priority 2021, published 2024).

Experiments:
HDAC4 = assay: Phosphorylated and total HDAC4 in cytosol and nucleus (subcellular fractionation, Western blot); type: cell-based, human; settings: hiPsCMs; for phosphorylation state of HDAC4 Ser246 in cytosol: Dox 15 h, preincubation 24 h before Dox; for total HDAC4 levels in nuclei fractions: Dox, pretreatment before Dox
Method: Briefly, fresh LV (˜30 mg) tissue or harvested untreated or treated cells (˜3×10^6 cells) were washed using cold DPBS along with 100-fold diluted protease and phosphatase inhibitors. Human cardiomyocytes were pelleted by centrifugation at 480×g for 10 min at 4° C., while the myocardium was placed in a pre-chilled glass Petri dish and minced on ice using sharp scissors. All samples were homogenized in 500 μl of STM buffer at pH 7.4, containing 250 mM sucrose, 50 mM Tris-HCl, 5 mM MgCl2, 5 mM Na3VO4, 1% (v/v) protease and phosphatase inhibitor cocktails and homogenized for 1 min on ice using a tight-fitting Teflon pestle attached to a Potter S. homogenizer (Sartorius Stedium, Goettingen, Germany) set to 800 rpm. The homogenate was maintained on ice for 30 min, vortexed at maximum speed for 15 s and then centrifuged at 800×g for 15 min at 4° C. The pellet was labelled as P0 and kept on ice; the supernatant was labelled as S0. The pellet P0 (containing nuclei and debris) was resuspended in 500 μl STM buffer, vortexed at maximum speed for 15 s and then centrifuged at 500×g for 15 min at 4° C. Following the above step, the nuclear pellet was labelled as P1 and kept on ice, and the supernatant S1 (cell debris) was discarded. To further increase the purity of the P1 fraction it was washed in 400 μl STM buffer, vortexed at maximum speed for 15 s and then centrifuged at 1000×g for 15 min at 4° C. The washed pellet was labelled as P2 (S2 was discarded) and resuspended in 100 μl NET buffer composed of 20 mM Hepes pH 7.9, 1.5 mM MgCl2, 0.5 M NaCl, 0.2 mM EDTA, 20% (v/v) glycerol, 1% (v/v) Triton-X-100 and protease and phosphatase inhibitors, using a pipette to triturate until homogeneity. Pellet P2 was vortexed at maximum speed for 15 s and incubated on ice for 30 min; the resulting fraction contained the nuclei, which were lysed by sonication (Soniprep 150, MSE, London, UK) at a high setting for 10-15 s with 30 s pauses whilst being kept on ice. The lysate was centrifuged at 9000×g for 30 min at 4° C., the resultant supernatant (S3) was the final “nuclear fraction”. […] The protein content of each compartment was determined using the BCA protein assay^48. […]
(§1) Protein extracts (10 μg) obtained were denatured, separated by SDS-PAGE electrophoresis (Bio-Rad), transferred onto PVDF membrane (Millipore) and probed with antibodies to GADPH (MERCK, 8795,1:5000), TBP (CELL SIGNALING, 8515, 1:1000), PR55α (CELL SIGNALING, 5689, 1:1000), phospho-HDAC4 (ABCAM, ab39408, 1:2000), HDAC4 (CELL SIGNALING, 5392, 1:1000), YY1 (CELL SIGNALING, 2185,1:1000) and sST2 (PROTEINTECH, 11,920-1-AP, 1:1000). […] Signals were detected by chemiluminescence and quantified using ImageJ 1.44p pixel analysis (US National Institutes of Health).

YY1 = YY1 expression levels by Western blot in hiPsCMs; type: cell-based, human; settings: Dox
Method: (§2) Protein extracts (10 μg) obtained were denatured, separated by SDS-PAGE electrophoresis (Bio-Rad), transferred onto PVDF membrane (Millipore) and probed with antibodies to GADPH (MERCK, 8795,1:5000), TBP (CELL SIGNALING, 8515, 1:1000), PR55α (CELL SIGNALING, 5689, 1:1000), phospho-HDAC4 (ABCAM, ab39408, 1:2000), HDAC4 (CELL SIGNALING, 5392, 1:1000), YY1 (CELL SIGNALING, 2185,1:1000) and sST2 (PROTEINTECH, 11,920-1-AP, 1:1000). Membranes were developed using HRP conjugated secondary antibodies and Pierce ECL western blotting substrate (Thermo Fisher Scientific). Signals were detected by chemiluminescence and quantified using ImageJ 1.44p pixel analysis (US National Institutes of Health).

HDAC4-YY1 interaction = assay: Reciprocal co-immunoprecipitation of HDAC4 and YY1 in nuclear fraction of hiPsCMs; type: cell-based, human; settings: nuclear fraction from hiPsCMs
Method: Briefly, fresh LV (˜30 mg) tissue or harvested untreated or treated cells (˜3×10^6 cells) were washed using cold DPBS along with 100-fold diluted protease and phosphatase inhibitors. Human cardiomyocytes were pelleted by centrifugation at 480×g for 10 min at 4° C., while the myocardium was placed in a pre-chilled glass Petri dish and minced on ice using sharp scissors. All samples were homogenized in 500 μl of STM buffer at pH 7.4, containing 250 mM sucrose, 50 mM Tris-HCl, 5 mM MgCl2, 5 mM Na3VO4, 1% (v/v) protease and phosphatase inhibitor cocktails and homogenized for 1 min on ice using a tight-fitting Teflon pestle attached to a Potter S. homogenizer (Sartorius Stedium, Goettingen, Germany) set to 800 rpm. The homogenate was maintained on ice for 30 min, vortexed at maximum speed for 15 s and then centrifuged at 800×g for 15 min at 4° C. The pellet was labelled as P0 and kept on ice; the supernatant was labelled as S0. The pellet P0 (containing nuclei and debris) was resuspended in 500 μl STM buffer, vortexed at maximum speed for 15 s and then centrifuged at 500×g for 15 min at 4° C. Following the above step, the nuclear pellet was labelled as P1 and kept on ice, and the supernatant S1 (cell debris) was discarded. […] The protein content of each compartment was determined using the BCA protein assay^48. […]

PR55α = PR55α expression levels by Western blot in hiPsCMs; type: cell-based, human; settings: for decrease in PR55α protein levels: Dox
Excerpt: The hsa-miR-106b-5p sequence of nucleotides was obtained from www.MiRbase.org. Human miR-106b (accession No: MIMAT0000680) and nucleotide sequence of 5′-[…]-3′ are homologous between mice and man. In order to express or block the specific miR-106b function, synthetic pre-miR-106b or antimiR-106 oligonucleotides were transfected into hiPsCMs cells, respectively. Lipofectamine RNAiMAX transfection reagent (ThermoFisher) was used according to the manufacturer's instructions. […] Two day before transfection, hiPsCMs cells were seeded in 6-well plates with 2 ml of STEMdiff™ Cardiomyocyte Support Medium (STEMCELL™ Technologies) to a density of 60%. Stock transfection mixes were made according to manufacturer's instructions. Briefly, 9 μl of Lipofectamine reagent was diluted in 141 μl of Opti-MEM I Medium (Invitrogen) and incubated 5 min at RT. In another tube, pre-miRNA, anti-miRNA or the specific controls oligonucleotides were diluted with Opti-MEM to a final concentration of 50 nM. Both mixes were incubated together for 30 min at RT to allow complex formation between miRNA and lipids. To transfect cells, the STEMdiff™ Cardiomyocyte Support Medium was removed and replaced with 1.75 ml fresh Medium and 250 μl of the appropriate transfection mix. Cells were incubated at 37° C. for […], after which hiPsCMs were treated with […] Dox for 15 h. Transfection efficiency was tested in parallel using both hiPsCMs as well as a mouse cell line HL-1 (FIG. 7). […]
as §1

miR-106b = miR-106b levels by quantitative RT-PCR in hiPsCMs exposed to Dox; type: cell-based, human; settings: 5 μM Dox
Method: Human induced pluripotent stem cells (hiPCs) were obtained from Phenocell®, (Catalog No. PCi_CAU) and cultured according to manufacturer's instructions. Briefly, hiPCs on a suitable matrix to allow attachment of cell aggregates (Matrigel®), were grown to 80% confluence using mTeSR™ plus medium. At passage 20, we started reprogramming procedure using a standardize protocol in our laboratory. Thus, culture medium was removed and changed to RPMI-1640 with B27 minus insulin supplement (basal differentiation supplement) with 4 μM CHIR99021 (day 0). On day 3, medium was changed to basal differentiation supplement and 3 μM IWR-1. On day 5, medium was refreshed with basal differentiation supplement. Medium was changed on day 8 to RPMI 1640 with B27 supplement (cited above as RMPI/B27). On day 11, medium was changed to RPMI 1640 without glucose with B27 minus insulin. On day 14, medium was changed to RPMI/B27; procedure that was repeated every 72 h. Beating clusters were observed after 7-14 days. A standardizing gene expression profiling (RT-qPCR) both hiPs as well as hiPsCMs were carried in each human isolated clone, before starting assays. […] The cardiotoxic treatment was carried out by exposing the cell culture to 5 μM doxorubicin for different time period; unless otherwise mentioned. All the in vitro assays were performed as three biological replicates, with technical replicates each time.
Mature miR-106b expression levels were assessed by quantitative RT-PCR using the miRCURY LNA UniRT PCR primer for miR813 106b-5p (Qiagen) and Power SYBR5Green PCR Master Mix (Thermo Fisher Scientific). U6 (Qiagen) was used as internal control to normalize miR-106b expression.

sST2 = sST2 expression levels in hiPsCMs; type: cell-based, human; settings: Dox 15 h
Method: RNA isolation and quantitative RT-PCR.
as §2

hiPsCMs [1] = assay: LDH levels in cell supernatant from hiPsCMs; type: cell-based, human; settings: Dox 15 h
HL-1 cell line = assay: FOG2 mRNA levels in HL-1 cell line; type: cell-based, mouse; settings: 5 μM Dox for 15 h
[2] = test system: Caspase 3/7 activity in hiPsCMs; assay: Caspase-Glo 3/7 assay; type: cell-based, human; settings: 5 μM Dox 15 h
Method: Caspase assay was performed as per the manufacturer's instructions with the Caspase-Glo 3/7 kit (Promega). In this setting, hiPsCMs were treated with 5 μM Dox for 15 h. Next, hiPsCMs and caspase assay reagent were left at RT for 30 min. The next step was adding an equal amount of caspase assay reagent and further incubated for 30 min at RT. Luminescence was measured using a microplate reader CLARIOstar Plus (BMG Labtech).

PP2A = PP2A Immunoprecipitation Phosphatase Assay; type: cell-based, human; settings: hiPsCMs, Dox treatment
Method: To measure PP2A phosphatase activity, we used a PP2A Immunoprecipitation Phosphatase Assay Kit (Millipore Sigma, catalog number 17-313). In brief, cells were lysed in 20 mM imidazole HCl, 2 mM EDTA, 2 mM EGTA, pH 7.0 with 10 μg/mL each of aprotinin, leupeptin, pepstatin, 1 mM benzamidine, and 1 mM PMSF. Two milligrams of the lysates were then immunoprecipitated with 2 μg of anti-STRN4 antibody (Abcam, ab177155) and 40 μl of protein-A-agarose beads at 4° C. overnight. Beads were washed three times with lysis buffer followed by the Ser/Thr assay buffer. Phosphatase reactions were then performed in Ser/Thr assay buffer with a final concentration of 750 μM of MAP4K4 phosphopeptides: S771/S775 (A-A-S-pS-L-N-L-pS-N-G-E-T-E-S-V-K), S876 (L-T-A-N-E-T Q-pS-A-S-S-T-L-Q-K) or S1251 (V-F-F-A-pS-V-R-S) for 10 min at 30° C. To provide evidence that the immunoprecipitated phosphatase activity is PP2A, we treated parallel immunoprecipitates with 5 nM of okadaic acid (Cell Signaling, #5934). Dephosphorylation of the phosphopeptide was measured through malachite green phosphate detection at 650 nm.

[3] = test system: miR-106b target FOG2 in hiPsCMs; assay: FOG2 mRNA levels (efficiency of miR-106b inhibition) in hiPsCMs; type: cell-based, human; settings: preincubation 24 h, then Dox 15 h, vs AC
hiPsCMs [4] = assay: Assay for cell viability (MTT); type: cell-based, human; settings: Dox 15 h
Method: After seeding 5×10^3 cells in each 96-well plate, they were incubated in 5% CO2 at 37° C. for 24 h. After cited treatment, MTT solution (1 mg/ml) was added to each well and an incubation was performed for 3 h at 37° C. Next, the medium containing MTT was removed and 100 μL of DMSO was added to each well and pipetted several times to form a completely uniform suspension. The solution was then shaken for 10 min at 37° C. until formazan crystals were completely dissolved. The obtained solution was added to a microtube and centrifuged in 1500 RPM for 5 min to eliminate any impurities. Absorbance of the samples was read at 570 nm and the background value at 690 nm was subtracted. The intrinsic absorbance value of doxorubicin was subtracted when necessary. The index of cell survival at each time point corresponds to the percentage with respect to control.

Molecule | phosphorylation state of HDAC4 Ser246 in cytosol (HDAC4) | total HDAC4 levels in nuclei fractions (HDAC4) | YY1 protein expression (YY1; 6 h of treatment) | YY1 protein expression (YY1; 15 h, p<0.001) | HDAC4-YY1 interaction (HDAC4-YY1 interaction) | decrease in PR55α protein levels (PR55α; 6 h of treatment) | decrease in PR55α protein levels (PR55α; 15 h, p<0.001) | miR-106b levels in hiPsCMs (miR-106b; 3 h of treatment) | miR-106b levels in hiPsCMs (miR-106b; 15 h, p<0.001) | miR-106b levels in the culture media of hiPsCMs (miR-106b; significant from 15 h) | sST2 expression levels (sST2) | release of LDH (hiPsCMs [1]) | FOG2 mRNA levels (HL-1 cell line) | caspase 3/7 activity (myocardial apoptosis) [2] | PP2A activity (PP2A) | PR55α levels (PR55α; with or without Dox) | FOG2 mRNA levels [3] | loss of Dox-induced cell viability (hiPsCMs [4])
COc1cccc2c1C(=O)c1c(O)c3c(c(O)c1C2=O)C[C@@](O)(C(=O)CO)C[C@@H]3O[C@H]1C[C@H](N)[C@H](O)[C@H](C)O1 [Dox, doxorubicin] | significantly increases | significative decrease in total HDAC4 levels | 3.8±0.23 fold control | significantly higher | prevent HDAC4-YY1 interaction | 2.6±0.02 fold control | significantly higher | 2.3±0.03 fold control | significantly higher | progressively increased | increase in sST2 expression levels | – | – | – | – | – | – | –
AM106: miRCURY LNA microRNA Inhibitor against miR-106b-5p, 5′-CACTGTCAGCACTTT-3′ (SEQ ID NO 3), sequence shown without LNA pattern (antisense CACUGUCAGCACUUU; LNA-modified inhibitor, LNA pattern not given here) | decreased phosphorylation state of HDAC4 | increased | – | – | favored these interaction | – | – | – | – | – | reverted this effect | prevent the release of LDH | increases FOG2 mRNA levels | decrease in caspase 3/7 activity | prevented Dox-induced PP2A activity decrease | prevented Dox-induced PR55α degradation | prevent down-regulation of FOG2 mRNA levels | able to prevent
